In experiment [1] the target is T1, Rat L-Hexonate Dehydrogenase (L-HDH) (Rattus norvegicus, UniProt P51635).
T1 construct: rat kidney supernatant fraction; from tissue; host or cells: rat kidney, supernatant fraction
T1 sequence (P51635 1-325): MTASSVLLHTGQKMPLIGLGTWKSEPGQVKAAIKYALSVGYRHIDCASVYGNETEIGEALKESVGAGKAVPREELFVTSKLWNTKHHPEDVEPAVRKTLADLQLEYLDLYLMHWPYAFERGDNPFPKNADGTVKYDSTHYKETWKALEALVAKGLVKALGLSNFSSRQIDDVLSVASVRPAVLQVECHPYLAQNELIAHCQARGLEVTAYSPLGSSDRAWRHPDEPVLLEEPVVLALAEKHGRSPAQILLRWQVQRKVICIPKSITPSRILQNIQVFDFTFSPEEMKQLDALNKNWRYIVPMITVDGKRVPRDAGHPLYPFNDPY
Description: In vitro inhibition of L-hexonate dehydrogenase (rat kidney supernatant fraction). It counts as biochemical. The following applies: ± SEM, n = 2-3, pH 7.5, room temperature. The text has this: (§1) The in vitro inhibiting activity of racemic 2,7-difluoro-4-methoxyspiro[9H-fluorene-9,4'-imidazolidine]-2',5'-dione, prepared in accordance with U.S. Pat. No. 4,864,028 (hereafter referred to as "A(±)") was compared to that of the R(+) and S(-) enantiomers thereof, prepared in accordance with U.S. Pat. No. 5,151,544 (referred to hereafter as "A(+)" and "A(-)", respectively), with respect to aldose reductase and L-hexonate dehydrogenase.
The test methods used for measuring in vitro inhibition activities of these compounds toward aldose reductase and L-hexonate dehydrogenase are known. The method utilized for measuring the inhibition of aldose reductase is described in B. W. Griffin and L. G. McNatt, "Characterization of the Reduction of 3-Acetylpyridine Adenine Dinucleotide Phosphate by Benzyl Alcohol Catalyzed by Aldose Reductase", Arch. Biochem, Biophys. 246:75-81 (1986). The method utilized for measuring the inhibition of L-hexonate dehydrogenase is described in M. T. DuPriest, B. W. Griffin, D. Kuzmich, and L. G. McNatt "Spiro[fluoreneisothiazolidin]one Dioxides: New Aldose Reductase and L-Hexonate Dehydrogenase Inhibitors", J. Med Chem. 34:3229-3234 (1991). Both methods are based on detection of the rate of increase of fluorescence of NADPH (reduced form of nicotinamide adenine dinucleotide phosphate) or an analog, formed as a product of the enzymatic reaction, i.e., oxidation of an appropriate alcohol substrate by the respective oxidized pyridine species. In the assay for aldose reductase, the reaction mixture contained 50 mmol/L potassium phosphate buffer (pH 7.5), 12 mmol/L benzyl alcohol, 12 μmol/L oxidized 3-acetylpyridine adenine dinucleotide phosphate, and rat lens supernatant fraction (50-100 μg total protein) in a total volume of 1.0 mL. […] The enzyme-dependent rate of formation of the reduced pyridine nucleotide was monitored with a fluorescence spectrophotometer set at excitation/emission wavelengths of 365/480 nm for the NADP+analog and 365/465 nm for NADP+; slit widths were routinely set at 10 nm. […]

In experiment [2] the test system is sorbitol in three tissues (lens, sciatic nerve and retina). Description: In vivo inhibition of sorbitol in three tissues (lens, sciatic nerve and retina) of severely diabetic rats, dosed orally. As to conditions: for ED50: Rattus norvegicus, 192 h, once a day for eight days. How it is done:
To compare the in vivo efficacy of A(±) (from Example 1) and its enantiomers, A(+) and A(-), the ED50 values (the effective dose, in mg/kg/day, to achieve 50% inhibition) for inhibition of sorbitol in three tissues (lens, sciatic nerve and retina) of severely diabetic rats, dosed orally for eight days, once a day, were recorded.

Experiment [3] has as its target T2, Rat Aldose Reductase (AR) (Rattus norvegicus, UniProt P07943).
T2 construct: rat lens supernatant fraction; from tissue; host or cells: rat lens, supernatant fraction
Description: In vitro inhibition of aldose reductase (rat lens supernatant fraction). Format: biochemical. As to conditions: for IC50: ± SEM, n = 3-4, rat lens supernatant, pH 7.5, room temperature; for difference in activity in vitro between A(+) and A(-): Rat AR and Rat L-HDH, conclusion in words.
Text: as §1
The test methods used for measuring in vitro inhibition activities of these compounds toward aldose reductase and L-hexonate dehydrogenase are known. The method utilized for measuring the inhibition of aldose reductase is described in B. W. Griffin and L. G. McNatt, "Characterization of the Reduction of 3-Acetylpyridine Adenine Dinucleotide Phosphate by Benzyl Alcohol Catalyzed by Aldose Reductase", Arch. Biochem, Biophys. 246:75-81 (1986). The method utilized for measuring the inhibition of L-hexonate dehydrogenase is described in M. T. DuPriest, B. W. Griffin, D. Kuzmich, and L. G. McNatt "Spiro[fluoreneisothiazolidin]one Dioxides: New Aldose Reductase and L-Hexonate Dehydrogenase Inhibitors", J. Med Chem. 34:3229-3234 (1991). Both methods are based on detection of the rate of increase of fluorescence of NADPH (reduced form of nicotinamide adenine dinucleotide phosphate) or an analog, formed as a product of the enzymatic reaction, i.e., oxidation of an appropriate alcohol substrate by the respective oxidized pyridine species. In the assay for aldose reductase, the reaction mixture contained 50 mmol/L potassium phosphate buffer (pH 7.5), 12 mmol/L benzyl alcohol, 12 μmol/L oxidized 3-acetylpyridine adenine dinucleotide phosphate, and rat lens supernatant fraction (50-100 μg total protein) in a total volume of 1.0 mL. The assay for L-hexonate dehydrogenase consisted of the following components: 50 mmol/L potassium phosphate buffer (pH 7.5), 20 mmol/L L-gulonate, 25 μmol/L NADP+, and rat kidney supernatant fraction (50-100 µg total protein) in a total volume of 1.0 mL. The enzyme-dependent rate of formation of the reduced pyridine nucleotide was monitored with a fluorescence spectrophotometer set at excitation/emission wavelengths of 365/480 nm for the NADP+analog and 365/465 nm for NADP+; slit widths were routinely set at 10 nm. Reactions were carried out at room temperature; blank rates with one component of the reaction omitted were typically less than 10% of the rate of the complete reaction.
The IC50 values (inhibitor concentration producing 50% inhibition of the reaction under the standard assay conditions described) were computed by linearregression analysis of the linear portion of the dose-response curve for each inhibitor.

In experiment [4] the test system is sorbitol in three tissues (lens, sciatic nerve and retina). Description: In vivo inhibition of sorbitol in three tissues (lens, sciatic nerve and retina) of severely diabetic rats, dosed orally. The following applies: Rattus norvegicus, 192 h, oral, once a day for eight days, footnote 1: ED60, read-out: ED50, Lens (footnote: for lens, ED60 value is given).
Setting [5] is: retina sorbitol, oral, A(-) value is (est.), read-out: ED50, Retina.
Setting [6] is: sciatic nerve sorbitol, oral, read-out: ED50, S. Nerve.

Read-outs that look alike come from different tables or passages of the source.

The values that follow come from patent publication US5521208A, “Compositions and methods for the treatment of the metabolically impaired and for improved compliance” (Alcon Laboratories, Inc., priority 1993, dated 1996).

Regarding `COc1cc(F)cc2c1-c1ccc(F)cc1C21NC(=O)NC1=O` (racemic) [A(±), 2,7-difluoro-4-methoxyspiro[9H-fluorene-9,4'-imidazolidine]-2',5'-dione], the IC50 (commonly the point on the concentration scale where inhibition reaches its midpoint) in experiment [1] is 2.2 ± 0.9 µM; in experiment [3] it was 5.7 ± 1.7 µM. Also, the ED50 (as a rule, the dose that gives a 50% effect, or the effect in half of the subjects) in experiment [2] (setting [5]) worked out at 0.26 mg/kg; in experiment [2] (setting [6]), 0.12 mg/kg. The “activity relative to A(+)” value in experiment [2] (sorbitol inhibition in vivo, diabetic rats) is “about 50%”. The ED60 in experiment [4] worked out at 0.28 mg/kg/day.
For `COc1cc(F)cc2c1-c1ccc(F)cc1[C@]21NC(=O)NC1=O` [A(-), 2,7-difluoro-4-methoxyspiro[9H-fluorene-9,4'-imidazolidine]-2',5'-dione], the IC50 came out at 3 ± 0.4 µM in experiment [1] and 5.9 ± 0.3 µM in experiment [3]. The values for the median effective dose (ED50) in experiment [2] (setting [5]) and in experiment [2] (setting [6]) were 2 to 3 mg/kg and 1 mg/kg, respectively. In addition, the “factor by which less active than A(+)” value in experiment [2] (in all tissues (lens, sciatic nerve, retina)) is reported as at least 10. In experiment [2] (lens sorbitol, highest dose (1.5 mg/kg/day), oral, eight days), the “maximum inhibition achieved at the highest dose” value came out at 40%. Also, in experiment [3], the “difference in activity in vitro between A(+) and A(-)” value was “no significant difference in activity in vitro”. In experiment [4], the ED60 stood at 1.52 mg/kg/day.
As to `COc1cc(F)cc2c1-c1ccc(F)cc1[C@@]21NC(=O)NC1=O` [A(+), 2,7-difluoro-4-methoxyspiro[9H-fluorene-9,4'-imidazolidine]-2',5'-dione], the IC50 is 3 ± 0.4 µM in experiment [1] and 5.5 ± 0.2 µM in experiment [3]. For the same molecule, the ED50 in experiment [2] (setting [5]) was determined as 0.15 mg/kg; in experiment [2] (setting [6]), 0.08 mg/kg. For the same molecule, the “difference in activity in vitro between A(+) and A(-)” value in experiment [3] was “no significant difference in activity in vitro”. In experiment [4], the ED60 was determined as 0.15 mg/kg/day.
